Measurements from PMC3610763 (Chemical research in toxicology, 2012).

Experiments:
[1] = tested on: human liver microsomes
[2] = tested on: individual recombinant human P450 enzymes
[3] = in vivo, cited from earlier work
[4] = human, in vivo, po; cited from earlier work
[5] = rat, in vivo, po, 30 mg/kg; cited from earlier work

Row | Structure (SMILES) | formation of G3 from the analogue, versus capsaicin [1] | formation of conjugates equivalent to G1/G2 from the analogue, versus capsaicin [1] | other results
1 | CCCCCCCCC(=O)NCc1ccc(OC)c(O)c1 [N-(3-hydroxy-4-methoxybenzyl)nonanamide] | absent | unchanged | 
2 | CCCCCCCCC(=O)NCc1cccc(OC)c1 [N-(3-methoxybenzyl)nonanamide] | absent | diminished | 
3 | COc1cc(CNC(=O)CCCC/C=C/C(C)C)cc(-c2cc(CNC(=O)CCCC/C=C/C(C)C)cc(OC)c2O)c1O [Dimer, 5,5’-Dicapsaicin] |  |  | P450 enzymes producing the conjugate/dimer from capsaicin [2]: CYP2D6, 2C9, and 2C8
4 | COc1cc(CNC(=O)CCCC/C=C/C(C)C)ccc1O [Capsaicin, trans-8-methyl-N-vanillyl-6-nonenamide] |  |  | estimated T1/2 ([3]; human): 1.6 h; time within which capsaicin was cleared in most patients [3]: ≤ 4.5 h; AUC [4]: ~ 1.7 ng*h/mL; T1/2 [4]: 0.42 h; Tmax [4]: ~ 0.78 h; absorption from the intestine [5]: 94%; amount found in intestine [5]: ~ 1,060 mg/tissue; amount found in kidney [5]: ~ 7 mg/tissue; amount found in liver [5]: ~ 45 mg/tissue; peak serum concentration [5]: 6.2 µM
5 | CCCCCCCCC(=O)NCc1ccc(O)c(O)c1 [N-(3,4-dihydroxybenzyl)nonanamide] | absent |  | 
6 | CCCCCCCCC(=O)NCc1ccccc1 [N-benzylnonanamide] | absent | diminished | 
7 | CCCCCCCCC(=O)NCc1ccc(OC)c(OC)c1 [N-(3,4-dimethoxybenzyl)nonanamide] | absent | diminished | 
8 | CCCCCCCCC(=O)NCc1ccc(O)c(OC)c1 [nonivamide, N-vanillylnonanamide] | comparable to capsaicin | unchanged | G4 and G5 formation from the analogue [1]: roughly equivalent to capsaicin
9 | CCCCCCCCC(=O)NCc1ccc(O)cc1 [N-(4-hydroxybenzyl)nonanamide] | greater | increased | 
